Assay results reported in US11505548B2, “Heterocyclic compounds and their use for treatment of helminthic infections and diseases” (Celgene Corporation, priority 2019, dated 2022).

Tested on: microfilariae of Dirofilaria immitis
Assay: Dirofilaria immitis, Microfilaria (DiMF) Assay
Type: cell-based
Settings: read-out: D. immitis activity level (IC50 or MED)
Protocol: Heartworm Screen Dirofilaria immitis (D. immitis)
Dirofilaria immitis, Microfilaria (DiMF) Assay.
Compounds were dissolved and serially diluted in DMSO. Aliquots were spotted to the empty wells of assay plates. Media and microfilariae of Dirofilaria immitis were added to each well to dilute the test compounds to the desired concentrations. Assay plates were incubated for approximately 72 hours, and the larvae in each well were observed microscopically for drug effect. Microfilariae in each well were assessed subjectively for survival or paralysis, and results were reported as Minimum Effective Dose (MED).
Active and selective (DiL4 vs. DiMF potency) example compounds were subsequently evaluated in heartworm positive dog studies to correlate the in vitro selectivity profile with in vivo effects on circulating microfilariae.

| Structure (SMILES) | IC50 |
| --- | --- |
| Cc1nccnc1Nc1nc(-c2ccc(OC(C)C)cn2)ns1 [Compound 135, 3-(5-isoprop-oxypyridin-2-yl)-N-(3-methyl-pyrazin-2-yl)-1,2,4-thia-diazol-5-amine] | 0.2 to 0.5 µM |
| FC(F)(F)c1cccnc1Nc1nc(-c2cc(C3CC3)ccn2)ns1 [Compound 84, 3-(4-cyclopropyl-pyridin-2-yl)-N-(3-(trifluoromethyl)pyridin-2-yl)-1,2,4-thiadiazol-5-amine] | < 0.2 µM |
| COC(=O)c1cccnc1Nc1nc(-c2ccc(OC(C)C)cn2)ns1 [Compound 276, methyl 2-(3-(5-isopropoxy-pyridin-2-yl)-1,2,4-thiadiazol-5-ylamino) nicotinate] | 0.5 to 5 µM |
| COc1ccnc(-c2nsc(Nc3ccc(C(F)(F)F)cn3)n2)c1 [Compound 176, 3-(4-methoxy-pyridin-2-yl)-N-(5-(trifluoromethyl)pyridin-2-yl)-1,2,4-thiadiazol-5-amine] | < 0.2 µM |
| COc1cccnc1Nc1nc(-c2cc(C(F)(F)F)c(OC3CC3)cn2)ns1 [Compound 134, 3-(5-cyclo-propoxy-4-(trifluoromethyl)pyridin-2-yl)-N-(3-methoxy-pyridin-2-yl)-1,2,4-thiadiazol-5-amine] | 0.5 to 5 µM |
| COc1ccc(Nc2nc(-c3cc(OC4CCCCC4)ccn3)ns2)nc1 [Compound 183, 3-(4-(cyclo-hexyloxy)pyridin-2-yl)-N-(5-methoxypyridin-2-yl)-1,2,4-thiadiazol-5-amine] | < 0.2 µM |
| CC(C)Oc1ccc(-c2nsc(Nc3ncccc3C(=O)N(C)C3CC3)n2)nc1 [Compound 262, N-cyclo-propyl-2-(3-(5-isopropoxy-pyridin-2-yl)-1,2,4-thiadiazol-5-ylamino)-N-methyl-nicotinamide] | 0.2 to 0.5 µM |
| COc1cc(C(C)C)cnc1Nc1nc(-c2ccc(OC(C)C)cn2)ns1 [Compound 166, 3-(5-isopropoxy-pyridin-2-yl)-N-(5-isopropyl-3-methoxypyridin-2-yl)-1,2,4-thiadiazol-5-amine] | 0.5 to 5 µM |
| CC(=O)N(C)c1cccnc1Nc1nc(-c2cc3c(cn2)OC(C)(C)C3)ns1 [Compound 271, N-(2-(3-(2,2-dimethyl-2,3-dihydrofuro [2,3-c]pyridin-5-yl)-1,2,4-thiadiazol-5-ylamino)pyridin-3-yl)-N-methylacetamide] | 0.5 to 5 µM |
| CC(C)Oc1ccc(-c2nsc(Nc3ncc(C(F)(F)F)cc3N(C)C(=O)C3CC3)n2)nc1 [Compound 248, N-(2-(3-(5-isopropoxy-pyridin-2-yl)-1,2,4-thiadiazol-5-ylamino)-5-(trifluoro-methyl)pyridin-3-yl)-N-methylcyclo-propanecarbox-amide] | < 0.2 µM |
| CC(C)Oc1cnc(-c2nsc(Nc3ncccc3C(=O)N3CCCC3)n2)cc1C(F)(F)F [Compound 251, (2-(3-(5-isopropoxy-4-(trifluoromethyl)pyridin-2-yl)-1,2,4-thiadiazol-5-ylamino)pyridin-3-yl) (pyrrolidin-1-yl)methanone] | 0.5 to 5 µM |
| CN(C)c1cccnc1Nc1nc(-c2ccc(OC(F)F)cn2)ns1 [Compound 120, N2-(3-(5-(difluoromethoxy)pyridin-2-yl)-1,2,4-thiadiazol-5-yl)-N3,N3-dimethyl-pyridine-2,3-diamine] | 0.5 to 5 µM |
| CC(C)Oc1ccc(-c2nsc(Nc3ncccc3N(C)C(=O)C3CCCC3)n2)nc1 [Compound 172, N-(2-(3-(5-isopropoxy-pyridin-2-yl)-1,2,4-thiadiazol-5-ylamino)pyridin-3-yl)-N-methylcyclo-pentane-carboxamide] | 0.2 to 0.5 µM |
| Cc1cccnc1Nc1nc(-c2ccc(OC3CCN(C4CC4)CC3(F)F)cn2)ns1 (stereo not drawn) [Compound 83, 3-(5-(1-cyclo-propyl-3,3-difluoro-piperidin-4-yloxy)pyridin-2-yl)-N-(3-methylpyridin-2-yl)-1,2,4-thiadiazol-5-amine] | 0.2 to 0.5 µM |
| Cc1cccnc1Nc1nc(-c2ccc(O[C@@H]3CCN(C4CC4)C[C@H]3F)cn2)ns1 [Compound 91, 3-(5-((3R,4R)-1-cyclopropyl-3-fluoro-piperidin-4-yloxy)pyridin-2-yl)-N-(3-methylpyridin-2-yl)-1,2,4-thiadiazol-5-amine] | 0.5 to 5 µM |
| Cc1cccnc1Nc1nc(-c2cc(OC(C)C)c(C(F)(F)F)cn2)ns1 [Compound 152, 3-(4-isoprop-oxy-5-(trifluoromethyl)pyridin-2-yl)-N-(3-methylpyridin-2-yl)-1,2,4-thia-diazol-5-amine] | 0.2 to 0.5 µM |
| COC(=O)c1cc(-c2nsc(Nc3ncccc3C(C)C)n2)ncc1OC(C)C [Compound 197, methyl 5-isopropoxy-2-(5-(3-isopropylpyridin-2-ylamino)-1,2,4-thiadiazol-3-yl)isonicotinate] | < 0.2 µM |
| COc1ccnc(-c2nsc(Nc3ccc(C(C)C)cn3)n2)c1 [Compound 177, N-(5-isopropyl-pyridin-2-yl)-3-(4-methoxy-pyridin-2-yl)-1,2,4-thiadiazol-5-amine] | < 0.2 µM |
| CC(C)Oc1ccc(-c2nsc(Nc3ncccc3N(C)C(=O)C3CCC3)n2)nc1 [Compound 171, N-(2-(3-(5-isopropoxy-pyridin-2-yl)-1,2,4-thiadiazol-5-ylamino)pyridin-3-yl)-N-methylcyclo-butane-carboxamide] | 0.5 to 5 µM |
| CC(=O)N(C)c1cccnc1Nc1nc(-c2cc(C(C)C)ccn2)ns1 [Compound 216, N-(2-(3-(4-iso-propylpyridin-2-yl)-1,2,4-thiadiazol-5-ylamino)pyridin-3-yl)-N-methyl-acetamide] | 0.2 to 0.5 µM |
| CC(C)Oc1ccc(-c2nsc(Nc3ncccc3N3CCCC3=O)n2)nc1 [Compound 178, 1-(2-(3-(5-isopropoxy-pyridin-2-yl)-1,2,4-thiadiazol-5-ylamino)pyridin-3-yl)pyrrolidin-2-one] | 0.5 to 5 µM |
| CC(=O)Nc1cccnc1Nc1nc(-c2ccc(OC(C)C)cn2)ns1 [Compound 161, N-(2-(3-(5-isopropoxy-pyridin-2-yl)-1,2,4-thiadiazol-5-ylamino)pyridin-3-yl)acetamide] | 0.5 to 5 µM |
| COC(=O)c1cc(-c2nsc(Nc3ncccc3C)n2)ncc1OC(C)C [Compound 196, methyl 5-isopropoxy-2-(5-(3-methylpyridin-2-ylamino)-1,2,4-thiadiazol-3-yl)isonicotinate] | 0.2 to 0.5 µM |
| c1ccc(-c2nsc(Nc3ccc(N4CCCCC4)cn3)n2)nc1 [Cmpd 6, N-(5-(piperidin-1-yl)pyridin-2-yl)-3-(pyridin-2-yl)-1,2,4-thiadiazol-5-amine] | 0.5 to 5 µM |
| Cc1cccnc1Nc1nc(-c2cc(C#N)ccn2)ns1 [Compound 40, 2-(5-(3-methyl-pyridin-2-ylamino)-1,2,4-thiadiazol-3-yl)isonicotino-nitrile] | 0.5 to 5 µM |
| CC(=O)N(C)c1cccnc1Nc1nc(-c2cc(C(F)(F)F)c(OC(C)C)cn2)ns1 [Compound 187, N-(2-(3-(5-isopropoxy-4-(trifluoro-methyl)pyridin-2-yl)-1,2,4-thiadiazol-5-ylamino)pyridin-3-yl)-N-methylacetamide] | 0.2 to 0.5 µM |
| CC(=O)N(C)c1cc(C(F)(F)F)cnc1Nc1nc(-c2cc3c(cn2)OC(C)(C)C3)ns1 [Compound 272, N-(2-(3-(2,2-dimethyl-2,3-dihydrofuro [2,3-c]pyridin-5-yl)-1,2,4-thiadiazol-5-ylamino)-5-(trifluoromethyl)pyridin-3-yl)-N-methylacetamide] | < 0.2 µM |
